What was measured:
OVCAR-3 = assay: Inhibition of human cancer cell line OVCAR-3 (Ovarian); format: cell-based
Text: (§1) Current research in the control of cancer in the United States is coordinated by the National Cancer Institute (NCI). To determine whether a substance has anti-cancer properties, the NCI has established a systematic protocol. […] The protocol, and the established statistical means for analyzing the results obtained by the standardized testing are fully described in the literature. See: Boyd, Dr. Michael R., Principles & Practice of Oncology, PPO Updates, Volume 3, Number 10, October 1989, for an in depth description of the testing protocol; and Paull, K. D., "Display and Analysis of Patterns of Differential Activity of Drugs Against Human Tumor Cell Lines; Development of Mean Graph and COMPARE Algorithm", Journal of the National Cancer Institute Reports, Vol. 81, No. 14, Page 1088, Jul. 14, 1989 for a description of the methods of statistical analysis. Both of these references are incorporated herein by this reference thereto.
(§2) The dipeptides (1a-1e) were in turn prepared by coupling dolaproine (5) with the respective amino acids. All compounds were characterized (physical and spectroscopic data) and tested against the murine lymphocytic P388 leukemia cell line as well as six major human cancer cell lines.

KM20L2 = assay: Inhibition of human cancer cell line KM20L2 (Colon); format: cell-based
Text: as §1, §2

[1] = system: murine lymphocytic P388 leukemia cell line; assay: Inhibition of murine lymphocytic P388 leukemia cell line; format: cell-based; conditions: MOUSE LEUKEMIA P388
Text: as §2

A498 = assay: Inhibition of human cancer cell line A498 (Renal); format: cell-based
Text: as §1, §2

NCI-H460 = assay: Inhibition of human cancer cell line NCI-H460 (Lung-NSC); format: cell-based
Text: as §1, §2

SK-MEL-3 = assay: Inhibition of human cancer cell line SK-MEL-3 (Melanoma); format: cell-based
Text: as §1, §2

SF-295 = assay: Inhibition of human cancer cell line SF-295 (CNS); format: cell-based
Text: as §1, §2

Human Mammary Xenograph = assay: Dolastatin 10 in murine in vivo system, Human Mammary Xenograph Nude Mouse
Text: (§3) Presently Dolastatin 10, a linear pentapeptide represents the most important member and is a potentially useful antineoplastic agent.

[2] = system: LOX Human Melanoma Xenograph; assay: Dolastatin 10 in murine in vivo system, LOX Human Melanoma Xenograph (Nude Mouse)
Text: as §3

[3] = system: P388 Lymphocytic Leukemia; assay: Dolastatin 10 in murine in vivo system, P388 Lymphocytic Leukemia
Text: as §3

[4] = system: OVCAR-3 Human Ovary Xenograph; assay: Dolastatin 10 in murine in vivo system, OVCAR-3 Human Ovary Xenograph Nude Mouse; conditions: 40 μg/kg
Text: The synthesis of potentially useful peptides presents one of the most essential and promising approaches to new types of anticancer and immunosuppressant drugs. The Dolastatins, an unprecedented series of linear and cyclic antineoplastic and/or cytostatic peptides isolated from Indian Ocean sea hare Dolabella auricularia represent excellent leads for synthetic modification. The very productive sea hare Dolabella auricularia has produced a number of structurally distinct peptides with excellent antineoplastic activity. Presently Dolastatin 10, a linear pentapeptide represents the most important member and is a potentially useful antineoplastic agent. […] Recently the total synthesis and absolute configuration of this structurally unique and biologically active peptide was reported.

Substance	GI-50 (OVCAR-3) [µg/mL]	LC-50 (OVCAR-3) [µg/mL]	TGI (OVCAR-3) [ng/mL]	GI-50 (KM20L2) [µg/mL]	LC-50 (KM20L2) [µg/mL]	TGI (KM20L2) [ng/mL]	ED50 [1] [ng/mL]	GI-50 (A498) [µg/mL]	LC-50 (A498) [µg/mL]	TGI (A498) [ng/mL]	GI-50 (NCI-H460) [µg/mL]	LC-50 (NCI-H460) [µg/mL]	TGI (NCI-H460) [ng/mL]	GI-50 (SK-MEL-3) [µg/mL]	LC-50 (SK-MEL-3) [µg/mL]	TGI (SK-MEL-3) [ng/mL]	GI-50 (SF-295) [µg/mL]	LC-50 (SF-295) [µg/mL]	TGI (SF-295) [ng/mL]	further results
Dov-Val-Dil-Dap-Met-OCH3 [pentapeptide 3e]	< 0.0001	> 1	< 0.1	< 0.0001	> 1	0.15	0.389	< 0.0001	> 1	> 1000	< 0.0001	> 1	130	< 0.0001	> 1	> 1000	< 0.0001	> 1	56	
Dov-Val-Dil-Dap-Phe-NH2 [pentapeptide 3b]	0.0076	0.066	3.7	< 0.0001	0.083	19	19.5	0.00097	> 1	6.2	0.000095	> 1	11	0.00017	> 1	12	0.00085	> 1	49	
Dov-Val-Dil-Dap-Phe-OCH3 [pentapeptide 3a]	< 0.0001	> 1	1.1	< 0.0001	> 1	1.1	66.7	< 0.0001	> 1	2.9	< 0.0001	> 1	11	< 0.0001	> 1	0.68	< 0.0001	> 1	0.17	
Dov-Val-Dil-Dap-Pro-OCH3 [pentapeptide 3c]	< 0.0001	> 1	< 0.1	< 0.0001	> 1	2.2	8.8	< 0.0001	> 1	5.4	< 0.0001	> 1	1.3	< 0.0001	> 1	< 0.1	< 0.0001	> 1	2.4	
Dolastatin 10																				T/C (Human Mammary Xenograph; 6.25 μg/kg): 178; T/C (Human Mammary Xenograph; 13 μg/kg): 137; T/C ([2]; 3.25 μg/kg): 170; T/C ([2]; 6.5 μg/kg): 206; T/C ([2]; 13 μg/kg): 301; T/C ([2]; 26 μg/kg): 301; T/C ([3]; 3.25 μg/kg): 146; T/C ([3]; 6.5 μg/kg): 155; T/C [4]: 300
Dov-Val-Dil-Dap-Ile-OCH3 [pentapeptide 3d]	< 0.0001	0.043	< 0.1	< 0.0001	> 1	< 0.1	0.441	< 0.0001	> 1	< 0.1	< 0.0001	> 1	0.88	< 0.0001	> 1	< 0.1	< 0.0001	> 1	170	

— patent US5780588A, “Elucidation and synthesis of selected pentapeptides” (priority 1993, dated 1998)
